Test results from paper PMC8360157, “The chemical compound ‘Heatin’ stimulates hypocotyl elongation and interferes with the Arabidopsis NIT1‐subfamily of nitrilases” (The Plant Journal, 2021).

Target: T1, NIT1 (NITRILASE1) (Arabidopsis thaliana, UniProt P32961)
T1 construct: recombinant, 6xHis-tagged, expressed in Escherichia coli, (NH4)2SO4 precipitation, Ni-NTA and PD-10 purified; tag cleavage not mentioned
T1 sequence (P32961 2-346): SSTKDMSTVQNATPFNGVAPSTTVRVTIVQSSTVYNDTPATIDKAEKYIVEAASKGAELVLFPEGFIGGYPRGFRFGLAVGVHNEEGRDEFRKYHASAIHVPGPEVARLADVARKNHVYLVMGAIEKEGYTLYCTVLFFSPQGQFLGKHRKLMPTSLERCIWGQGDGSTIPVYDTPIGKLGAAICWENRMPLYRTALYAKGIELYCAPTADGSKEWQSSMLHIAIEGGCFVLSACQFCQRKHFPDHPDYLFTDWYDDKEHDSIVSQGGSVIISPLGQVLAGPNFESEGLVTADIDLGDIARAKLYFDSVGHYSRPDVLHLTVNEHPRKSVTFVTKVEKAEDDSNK
Assay: Berthelot colorimetric ammonia assay; IC50 by linear-regression interpolation
Assay type: biochemical

- IC50: ~20.7 µM
SMILES: CC(Nc1cccc2ccccc12)C(=O)NN=Cc1c(O)ccc2ccccc12 (stereo not shown) [D, N'‐[(2‐hydroxy‐1‐naphthyl)methylene]‐2‐(1‐naphthylamino)propanohydrazide]
